The results in this text go back to patent US20110300529A1, “DETECTION OF IFI16 IN BODY FLUIDS” (NoToPharm srl, priority 2008, published 2011).

Assay [1] concerns Human Keratinocyte monolayers. Kind of assay: Intracellular cleaved form of PARP (determination of undergoing cell death) by immunoblotting. Type of assay: cell-based. Conditions: 16 h after treatment, cell lysate. On the procedure:
Human Keratinocyte monolayers were UVB-irradiated at different doses (200, 400, and 800 J/m^2 respectively), treated with 2 μM Doxorubicin (Doxo) and 80 μM Etoposide (VP-16), or left untreated. At 16 h after treatment, the supernatant was collected and separated for determination of extracellular IFI16, while the remaining cells were lysed for determination of the intracellular cleaved form of PARP (determination of undergoing cell death). Collected supernatants were concentrated with TCA 25% as described in Example 4. An equal amount of total cellular protein per sample and an equal volume of concentrated supernatants were fractionated on SDS-PAGE (7.5% of NEXT GEL Amresco, OH, USA) and transferred to a nitrocellulose membrane (Biorad, CA, USA). […]
As control of the undergoing cell death induced by the treatment with UVB-irradiation and Doxo or VP-16, also the intracellular PARP cleavage was determined in the exposed keratinocyte. […]
(§1) Migrated proteins were transferred to nitrocellulose. The membranes were blocked in TBS/0.05% Tween20/5% BSA and extracellular IFI16 was detected by incubation of the membrane bearing surnatants samples with anti-IFI16 mouse monoclonal antibody (clone 1G7, Santa Cruz, Calif., USA). The intracellular cleaved form of PARP was detected by incubation of the membrane bearing cell extract samples by rabbit anti-PARP cleaved antibody (GTX24830, GeneTex, CA, USA). […]
Background: A western blot detects proteins with antibodies after separation by electrophoresis.

Assay [2] relates to Human Keratinocyte monolayers. Kind of assay: Western blot analysis of extracellular IFI16 in supernatants of cells undergoing cell death. Conditions: 16 h after treatment, TCA-concentrated supernatant, immunoblotting. Type of assay: cell-based. As to the method: Human Keratinocyte monolayers were UVB-irradiated at different doses (200, 400, and 800 J/m^2 respectively), treated with 2 μM Doxorubicin (Doxo) and 80 μM Etoposide (VP-16), or left untreated. At 16 h after treatment, the supernatant was collected and separated for determination of extracellular IFI16, while the remaining cells were lysed for determination of the intracellular cleaved form of PARP (determination of undergoing cell death). Collected supernatants were concentrated with TCA 25% as described in Example 4. […]
Supernatants of human primary keratinocytes cultured in serum-free medium (Epilife, Cascade Biologics, USA) were subjected to precipitation with trichloroacetic acid (TCA). Precipitated protein were analyzed by immunoblotting. […]
as §1

Turning to `COc1cccc2c1C(=O)c1c(O)c3c(c(O)c1C2=O)C[C@@](O)(C(=O)CO)C[C@@H]3O[C@H]1C[C@H](N)[C@H](O)[C@H](C)O1` [Doxorubicin], the “cell death as demonstrated by PARP cleavage” value in assay [1] (2 μM Doxorubicin) is listed as “chemically-induced cell death”. For the same compound, the “presence of extracellular IFI16 in supernatants” value in assay [2] (2 μM Doxorubicin) was “not observed”.

As for `COc1cc([C@@H]2c3cc4c(cc3[C@@H](O[C@@H]3O[C@@H]5CO[C@@H](C)O[C@H]5[C@H](O)[C@H]3O)[C@H]3COC(=O)[C@H]23)OCO4)cc(OC)c1O` [Etoposide], the “cell death as demonstrated by PARP cleavage” value in assay [1] (80 μM Etoposide) is listed as “chemically-induced cell death”. For the same compound, in assay [2] (80 μM Etoposide), the “presence of extracellular IFI16 in supernatants” value was “not observed”.
